Measured values taken from article PMC10892410, “[^18F]Fluspidine—A PET Tracer for Imaging of σ1 Receptors in the Central Nervous System” (Pharmaceuticals, 2024).
Several values for one entry are separate records, joined by “and”; a condition that tells them apart may be missing. Equal entries are not always repeated. Where two headings read alike, the source gives them in different places.

Tests used:
[1] = cited from earlier work
σ1 receptor [2] = conditions: cited from earlier work; for uptake in the brain: i.v., female CD1-mice
σ1 receptor [3] = conditions: cited from earlier work
[4] = rhesus monkey, in vivo; cited from earlier work
σ1 receptor [5] = conditions: cited from earlier work; for SUV120min p.i. as % of SUV5min p.i.: piglet brain; for SUV120min p.i. as % of SUV5min p.i. / whole-brain distribution volume VT: baseline; for VT, cerebellum / VT, colliculi / VT, cortex / VT, hippocampus / VT, midbrain / VT, striatum / VT, thalamus: piglet, Logan plot, baseline conditions, N = 3; for whole-brain distribution volume VT / decrease in VT upon SA 4503 blockade of σ1 receptors / standardized uptake value (SUV) in brain: piglets; for whole-brain distribution volume VT: two-tissue compartment modeling, metabolite-corrected plasma input; for decrease in VT upon SA 4503 blockade of σ1 receptors: whole brain, Logan plot analysis; for standardized uptake value (SUV) in brain: within 3 min after injection
σ1 receptor [6] = conditions: rhesus monkey, 1-tissue compartment model, baseline conditions, N = 1; cited from earlier work
σ1 receptor [7] = conditions: cited from earlier work; for VT: healthy volunteers
σ1 receptor [8] = conditions: in Figure 5; cited from earlier work
σ2 receptor [9] = conditions: in Figure 5; cited from earlier work
σ1 receptor [10] = experiment: σ1 receptor affinity (receptor binding); conditions: ratio Ki(σ2)/Ki(σ1)
[11] = logD7.4 by micro-shake flask method; format: physicochemical; conditions: n-octanol/MOPS buffer pH 7.4, determined by LC-MS
Protocol: The lipophilicity of the homologous fluoroalkyl derivatives 1–4 was determined by the micro-shake flask method. After the distribution of the compounds between an n-octanol layer and MOPS buffer (pH 7.4), the amount of the compound in the buffer layer was determined by mass spectrometry. The recorded logD7.4 values were compared with the logD7.2 values determined by the distribution of the analogous ^18F-labeled compounds [^18F]1–[^18F]4 between n-octanol and phosphate-buffered saline, pH 7.2. The logD7.2 values were calculated from the distribution of radioactivity in both layers.

human serum albumin = human serum albumin (Homo sapiens, UniProt P02768); experiment: plasma protein binding by HPLC on human serum albumin stationary phase; format: in vitro ADME; conditions: stationary phase coated with human serum albumin
Chain of human serum albumin (P02768 25-609): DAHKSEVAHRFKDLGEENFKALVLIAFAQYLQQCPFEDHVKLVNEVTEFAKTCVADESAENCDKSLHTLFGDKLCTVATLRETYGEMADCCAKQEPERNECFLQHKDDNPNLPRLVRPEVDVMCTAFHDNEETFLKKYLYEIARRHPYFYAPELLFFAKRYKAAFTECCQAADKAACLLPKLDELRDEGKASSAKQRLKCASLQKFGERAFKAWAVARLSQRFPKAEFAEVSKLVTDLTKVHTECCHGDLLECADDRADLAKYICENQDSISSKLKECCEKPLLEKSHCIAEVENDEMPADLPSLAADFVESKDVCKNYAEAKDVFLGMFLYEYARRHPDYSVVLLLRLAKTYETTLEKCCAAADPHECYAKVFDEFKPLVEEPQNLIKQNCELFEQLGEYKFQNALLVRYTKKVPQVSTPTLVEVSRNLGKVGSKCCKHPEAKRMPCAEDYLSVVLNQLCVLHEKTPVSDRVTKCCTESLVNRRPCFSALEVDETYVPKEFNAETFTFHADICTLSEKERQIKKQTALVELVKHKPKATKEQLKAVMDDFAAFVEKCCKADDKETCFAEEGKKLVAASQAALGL
Protocol: Plasma protein binding was recorded by HPLC analysis using a stationary phase coated with human serum albumin. The resulting retention times correlate with binding to human serum albumin [42].

σ2 receptor [12] = biological target: σ2 receptor; set-up: method as in PMID 22136765, PMID 21126878, PMID 21072511, PMID 19791807, PMID 21618432; conditions: cited from earlier work
[13] = pH 7.2; cited from earlier work
[14] = metabolic stability with mouse liver microsomes and NADPH; conditions: LC-MS
Protocol: After an incubation period of 90 min, the amount of remaining test compound was determined by LC-MS [42, 43, 44].

σ1 receptor [15] = conditions: healthy volunteers and HD patients, therapeutic doses; cited from earlier work
dopamine D2/D3 receptors = conditions: healthy volunteers and HD patients; cited from earlier work
[16] = pure fluspidine enantiomers, read-out: Ki, σ1 receptor affinity
[17] = racemic spirocyclic piperidines, read-out: Ki(σ1)

## FCCC1OC2(CCN(Cc3ccccc3)CC2)c2ccccc21 (racemic) [rac-[^18F]2]
[1]; brains of CD-1 mice, 60 min after intravenous administration
  activity in brain due to unchanged radioligand: 98%
[1]; mouse, in vivo, iv
  proportion of unchanged PET tracer in plasma: 75%
σ1 receptor [2]; 5 min p.i.
  uptake in the brain: 3.88 % ID/g
σ1 receptor [2]; 30 min p.i.
  uptake in the brain: 4.71 % ID/g
σ1 receptor [2]; 120 min p.i.
  uptake in the brain: 2.82 % ID/g
σ1 receptor [2]; mouse, 45 min p.i., N = 1
  Ratio of activity concentration, cerebellum vs. olfactory bulb: 1.75
  Ratio of activity concentration, cortex vs. olfactory bulb: 1.45
  Ratio of activity concentration, facial nucleus vs. olfactory bulb: 4.69
  Ratio of activity concentration, hippocampus vs. olfactory bulb: 1.21
  Ratio of activity concentration, striatum vs. olfactory bulb: 1.11
  Ratio of activity concentration, superficial grey layer of superior colliculus vs. olfactory bulb: 1.57
  Ratio of activity concentration, thalamus vs. olfactory bulb: 1.24

## FCC[C@H]1OC2(CCN(Cc3ccccc3)CC2)c2ccccc21 [(R)-2]
σ1 receptor [3]; [16]
  Ki: 0.57 nM

## [18F]CC[C@H]1OC2(CCN(Cc3ccccc3)CC2)c2ccccc21 [(R)-[^18F]2]
[4]
  fraction of unchanged PET tracer in plasma: > 30%
σ1 receptor [5]
  SUV120min p.i. as % of SUV5min p.i.: ~ 80%
  VT, cerebellum: 140 mL/g
  VT, colliculi: 123 mL/g
  VT, cortex: 67.8 to 98.4 mL/g
  VT, hippocampus: 95.2 mL/g
  VT, midbrain: 132 mL/g
  VT, striatum: 100 mL/g
  VT, thalamus: 106 mL/g
  whole-brain distribution volume VT: 133 mL/g
  decrease in VT upon SA 4503 blockade of σ1 receptors: −89%
  standardized uptake value (SUV) in brain: about 2
σ1 receptor [6]
  VT, amygdala: 153 mL/g
  VT, caudate: 181 mL/g
  VT, cerebellum: 175 mL/g
  VT, cortex: 174 to 291 mL/g
  VT, hippocampus: 193 mL/g
  VT, putamen: 199 mL/g
  VT, thalamus: 128 mL/g

## FCC[C@@H]1OC2(CCN(Cc3ccccc3)CC2)c2ccccc21 [(S)-2]
σ1 receptor [3]; [16]
  Ki: 2.3 nM

## [18F]CC[C@@H]1OC2(CCN(Cc3ccccc3)CC2)c2ccccc21 [(S)-[^18F]2]
[4]
  fraction of unchanged PET tracer in plasma: > 30%
σ1 receptor [5]
  SUV120min p.i. as % of SUV5min p.i.: ~ 50%
  VT, cerebellum: 14.8 mL/g
  VT, colliculi: 15.2 mL/g
  VT, cortex: 9.8 to 13.1 mL/g
  VT, hippocampus: 13.5 mL/g
  VT, midbrain: 15.4 mL/g
  VT, striatum: 13.5 mL/g
  VT, thalamus: 14.1 mL/g
  whole-brain distribution volume VT: 13 mL/g
  decrease in VT upon SA 4503 blockade of σ1 receptors: −55%
  standardized uptake value (SUV) in brain: about 2
σ1 receptor [6]
  VT, amygdala: 14.6 mL/g
  VT, caudate: 13.5 mL/g
  VT, cerebellum: 13.6 mL/g
  VT, cortex: 14.6 to 19.6 mL/g
  VT, hippocampus: 16.4 mL/g
  VT, putamen: 14.9 mL/g
  VT, thalamus: 12.2 mL/g
σ1 receptor [7]; frontal cortex
  VT: 21 mL/g
σ1 receptor [7]; striatum
  VT: 19 mL/g
σ1 receptor [7]; human
  free fraction in blood plasma fp: 0.023

## COc1cc(CCN2CCN(CCCc3ccccc3)CC2)ccc1OCC[18F] [[^18F]FE-SA 4503]
σ1 receptor [8]
  IC50: 6.5 nM
σ2 receptor [9]
  IC50: 2.1 nM

## COc1cc(CCN2CCN(CCCc3ccccc3)CC2)ccc1OC[18F] [[^18F]FM-SA 4503]
σ1 receptor [8]
  Ki: 6.4 nM
σ2 receptor [9]
  Ki: 250 nM

## FCC1OC2(CCN(Cc3ccccc3)CC2)c2ccccc21 (stereo not drawn) [compound 1]
σ1 receptor [10]
  σ1/σ2 Selectivity: 743
[11]
  logD: 2.8 ± 0.04
Human serum albumin
  fraction unbound: 0.16
σ1 receptor [3]; [17]
  Ki: 0.74 nM
σ2 receptor [12]
  Ki: 0.55 µM
[13]
  logD7.2 PET Tracer: 2.39 ± 0.04
[14]
  In Vitro Metabolism—Intact Compd. after 90 min: 53% and 53 ± 3.9%

## FCCC1OC2(CCN(Cc3ccccc3)CC2)c2ccccc21 (stereo not drawn) [compound 2]
σ1 receptor [10]
  σ1/σ2 Selectivity: 1331
[11]
  logD: 3.33 ± 0.07
Human serum albumin
  fraction unbound: 0.12
σ1 receptor [3]; [17]
  Ki: 0.59 nM
σ2 receptor [12]
  Ki: 0.785 µM
[13]
  logD7.2 PET Tracer: 2.57 ± 0.32
[14]
  In Vitro Metabolism—Intact Compd. after 90 min: 34% and 34 ± 8.8%

## FCCCC1OC2(CCN(Cc3ccccc3)CC2)c2ccccc21 (stereo not drawn) [compound 3]
σ1 receptor [10]
  σ1/σ2 Selectivity: 598
[11]
  logD: 3.6 ± 0.12
Human serum albumin
  fraction unbound: 0.09
σ1 receptor [3]; [17]
  Ki: 1.4 nM
σ2 receptor [12]
  Ki: 0.837 µM
[13]
  logD7.2 PET Tracer: 2.78 ± 0.06
[14]
  In Vitro Metabolism—Intact Compd. after 90 min: 33% and 33 ± 7.9%

## FCCCCC1OC2(CCN(Cc3ccccc3)CC2)c2ccccc21 (stereo not drawn) [compound 4]
σ1 receptor [10]
  σ1/σ2 Selectivity: 408
[11]
  logD: 3.71 ± 0.14
Human serum albumin
  fraction unbound: 0.05
σ1 receptor [3]; [17]
  Ki: 1.2 nM
σ2 receptor [12]
  Ki: 0.489 µM
[13]
  logD7.2 PET Tracer: 3.11 ± 0.14
[14]
  In Vitro Metabolism—Intact Compd. after 90 min: 28% and 28 ± 4.5%

## FCCC1OC2(CCN(Cc3ccc(F)cc3)CC2)c2ccccc21 (stereo not drawn) [compound 5]
σ1 receptor [10]
  σ1/σ2 Selectivity: 844
σ1 receptor [3]; [17]
  Ki: 0.57 nM
σ2 receptor [12]
  Ki: 0.481 µM

## FCCC1OC2(CCN(CC3CCCCC3)CC2)c2ccccc21 (stereo not drawn) [compound 6]
σ1 receptor [10]
  σ1/σ2 Selectivity: 80
σ1 receptor [3]; [17]
  Ki: 0.71 nM
σ2 receptor [12]
  Ki: 0.057 µM

## CC(c1ccccc1)N1CCC2(CC1)OC(CCF)c1ccccc12 (stereo not drawn) [compound 7]
σ1 receptor [10]
  σ1/σ2 Selectivity: >1000
σ1 receptor [3]; [17]
  Ki: 1 nM
σ2 receptor [12]; cells printed in µM
  Ki: > 1 µM

## CCCCN1CCC2(CC1)OC(CCF)c1ccccc12 (stereo not drawn) [compound 8]
σ1 receptor [10]
  σ1/σ2 Selectivity: 225
σ1 receptor [3]; [17]
  Ki: 3.9 nM
σ2 receptor [12]
  Ki: 0.878 µM

## CCCCCCCCN1CCC2(CC1)OC(CCF)c1ccccc12 (stereo not drawn) [compound 9]
σ1 receptor [10]
  σ1/σ2 Selectivity: 7.9
σ1 receptor [3]; [17]
  Ki: 15 nM
σ2 receptor [12]
  Ki: 0.118 µM

## CC(C)=CCN1CCC2(CC1)OC(CCF)c1ccccc12 (stereo not drawn) [compound 10]
σ1 receptor [3]; [17]
  Ki: 1.5 nM
σ2 receptor [12]; cells printed in µM
  Ki: > 1 µM

## COc1ccc(CCN2CCN(CCCc3ccccc3)CC2)cc1OC [cutamesine, 1-[2-(3,4-dimethoxyphenyl)ethyl]-4-(3-phenylpropyl)piperazine]
σ1 receptor [8]
  IC50: 4.6 nM
σ2 receptor [9]
  IC50: 63.1 nM

## CCCN1CCC(c2cccc(S(C)(=O)=O)c2)CC1 [pridopidine, 4-[3-(methylsulfonyl)phenyl]-1-propylpiperidine]
σ1 receptor [15]
  binding to the σ1 receptor in the brain (occupancy study): selective binding
Dopamine D2/D3 receptors
  occupancy of dopamine D2/D3 receptors: minimal occupancy
